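All cell lines were grown in 96-well plates and treated with compound for 48 hours. Here, GI50 denotes the concentration required for 50% inhibition of growth.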 Active and inactive are the calls of the source. Rule as the data show it: active = GI50 up to about 1.1 µM and inactive = higher.
Columns and labels:
Assay in all cases: NCI tumour cell line growth inhibition, 48 h
[1] = test system: 786-0
[2] = test system: A498
[3] = test system: CAKI-1
[4] = test system: HL-60
[5] = test system: KM12
[6] = test system: MOLT-4
[7] = test system: NCI/ADR-RES
[8] = test system: OVCAR-5
[9] = test system: SF-268
[10] = test system: SK-OV-3
[11] = test system: SN12C
[12] = test system: SR
[13] = test system: UACC-257
[14] = test system: UO-31
[15] = test system: CCRF-CEM
[16] = test system: HOP-92
[17] = test system: NCI-H226
[18] = test system: SK-MEL-28
[19] = test system: TK-10

Measured: GI50

c1ccc(C2C3=C(CCCC3)Nc3nnnn32)cc1 (configuration not stated)
inactive: [1] > 100 µM | [2] 19.2 µM | [3] > 100 µM | [4] 33.1 µM | [5] > 100 µM | [6] 53 µM | [7] 98.9 µM | [8] > 100 µM | [9] 12.5 µM | [10] > 100 µM | [11] > 100 µM | [12] > 100 µM | [13] > 100 µM | [14] > 100 µM

CCOC(=O)c1nc2ccc(C(F)(F)F)cc2nc1NCc1ccc(F)cc1
inactive: [1] 30.1 µM | [3] 41.5 µM | [15] 24.9 µM | [4] 29.6 µM | [16] 4.83 µM | [5] 58.7 µM | [6] 42.8 µM | [17] 29 µM | [7] 24 µM | [8] 64.3 µM | [9] 11.5 µM | [18] 44 µM | [10] 43 µM | [11] 28.8 µM | [12] 37.8 µM | [19] 27.9 µM | [13] 27.5 µM | [14] 29 µM

O=C1c2ccccc2-c2ccc(/N=[N+](/[O-])c3ccc4c(c3)C(=O)c3ccccc3-4)cc21
inactive: [1] > 100 µM | [2] > 100 µM | [3] > 100 µM | [15] > 100 µM | [4] > 100 µM | [16] > 100 µM | [5] > 100 µM | [6] > 100 µM | [17] > 100 µM | [7] > 100 µM | [8] > 100 µM | [9] > 100 µM | [18] > 100 µM | [10] > 100 µM | [11] > 100 µM | [19] > 100 µM | [13] > 100 µM | [14] > 100 µM

Cc1c(O)c(=O)ccn1CCc1ccc(O)cc1
inactive: [1] 6.32 µM | [3] 4.52 µM | [15] 10 µM | [4] 33.5 µM | [16] 24.3 µM | [5] 41.3 µM | [6] 26.8 µM | [7] 8.71 µM | [8] 30 µM | [9] 9.51 µM | [18] 38.4 µM | [10] 24.8 µM | [12] 34.6 µM | [19] 15.8 µM | [13] 25.5 µM

CCOC(=O)Nn1c(C)nnc1CC#N
inactive: [1] > 100 µM | [3] > 100 µM | [4] > 100 µM | [16] 58.9 µM | [5] > 100 µM | [6] > 100 µM | [17] > 100 µM | [7] > 100 µM | [8] > 100 µM | [9] > 100 µM | [18] > 100 µM | [11] > 100 µM | [12] > 100 µM | [19] > 100 µM | [13] > 100 µM | [14] > 100 µM

NNC(=O)C1(NC(=O)c2ccccc2)C(c2ccccc2)C(c2ccccc2)=NN1c1ccccc1 (configuration not stated)
inactive: [1] 50.5 µM | [2] > 100 µM | [3] 15.6 µM | [15] 8.99 µM | [5] 35.1 µM | [6] 12.7 µM | [17] > 100 µM | [7] 32.1 µM | [8] 33 µM | [9] 66.7 µM | [18] 90.4 µM | [10] 29.9 µM | [11] 63.2 µM | [12] 18.2 µM | [19] 58.2 µM | [13] 43.3 µM | [14] 27.8 µM

C[C@H]1CCCCC[C@@H]2CC(=O)CC2C(=O)CCC(=O)O1 (some centres not stated)
inactive: [1] > 100 µM | [15] > 100 µM | [4] > 100 µM | [16] > 100 µM | [5] > 100 µM | [6] > 100 µM | [17] 16.7 µM | [7] 52.6 µM | [8] > 100 µM | [9] > 100 µM | [18] > 100 µM | [11] > 100 µM | [12] > 100 µM | [19] > 100 µM | [13] > 100 µM

O=C(CCCn1ccnc1[N+](=O)[O-])NCCn1ccnc1[N+](=O)[O-]
inactive: [1] > 100 µM | [3] > 100 µM | [15] > 100 µM | [4] > 100 µM | [5] > 100 µM | [6] > 100 µM | [17] > 100 µM | [7] > 100 µM | [8] > 100 µM | [9] > 100 µM | [18] > 100 µM | [10] > 100 µM | [11] > 100 µM | [12] > 100 µM | [19] > 100 µM | [13] > 100 µM | [14] > 100 µM

CC(C)CC(N)C(=O)O (configuration not stated)
inactive: [1] > 100 µM | [2] > 100 µM | [3] > 100 µM | [15] > 100 µM | [4] > 100 µM | [16] > 100 µM | [5] > 100 µM | [6] > 100 µM | [17] > 100 µM | [7] > 100 µM | [9] > 100 µM | [18] > 100 µM | [10] > 100 µM | [11] > 100 µM | [19] > 100 µM | [13] > 100 µM | [14] > 100 µM

Reference: ChEMBL document CHEMBL1201862, “PubChem BioAssay data set” (2004)
